The values that follow are results of earlier work, collected in patent US12329849B2, “Method for dyeing keratinous material, comprising the use of an organosilicon compound, a dyeing compound, a sealing reagent, and a polymer-containing post-treatment agent” (Henkel AG & Co. KGaA, priority 2021, dated 2025).

For `CCN(Cc1cccc(S(=O)(=O)[O-])c1)c1ccc(C(=C2C=CC(=[N+](CC)Cc3cccc(S(=O)(=O)[O-])c3)C=C2)c2ccccc2S(=O)(=O)[O-])cc1.[Na+].[Na+]` [Acid Blue 9], where the note is “25° C.”, the water solubility entry is listed as “more than 20 wt %”.
With `O=S(=O)([O-])c1ccc(N=Nc2c(O)ccc3ccccc23)cc1.[Na+]` [Acid Orange 7, sodium salt of 4-[(2-hydroxy-1-naphthyl)azo]benzenesulfonate], the solubility in water result (25° C.) is listed as “more than 7 g/l”.
With `Nc1cc(S(=O)(=O)[O-])cc2cc(S(=O)(=O)[O-])c(N=Nc3ccccc3)c(O)c12.[Na+].[Na+]` [Acid Red 33, disodium salt of 5-amino-4-hydroxy-3-(phenylazo)-naphthalene-2,7-disulfonate], the solubility in water (25° C.) was 2500 µg/mL.
As to `O=C([O-])c1c(Cl)c(Cl)c(Cl)c(Cl)c1-c1c2c(Br)cc(=O)c(Br)c-2oc2c(Br)c(O)cc(Br)c12.O=C([O-])c1c(Cl)c(Cl)c(Cl)c(Cl)c1-c1c2c(Br)cc(=O)c(Br)c-2oc2c(Br)c(O)cc(Br)c12.[Na+].[Na+]` [Acid Red 92, disodium salt of 3,4,5,6-tetrachloro-2-(1,4,5,8-tetrabromo-6-hydroxy-3-oxoxanthen-9-yl)benzoic acid], for the setting “25° C.”, the solubility in water entry was “greater than 10 g/l”.
As to `O=C([O-])C1=NN(c2ccc(S(=O)(=O)[O-])cc2)C(=O)C1N=Nc1ccc(S(=O)(=O)[O-])cc1.[Na+].[Na+].[Na+]` (centres unmarked) [Acid Yellow 23, trisodium salt of 4,5-dihydro-5-oxo-1-(4-sulfophenyl)-4-((4-sulfophenyl)azo)-1H-pyrazole-3-carboxylic acid], under “at 25° C.”, the “solubility in water (in words)” value is “readily soluble”.
